In the NIST ThermoML archive (doi:10.1016/j.jct.2011.04.005):

Assays:
[1] = xn = mol fraction of the nth substance listed; conditions: Maximal bubble pressure
[2] = Maximal bubble pressure

CCCCCCCC [octane] + CCO
[1]
Conditions	surface tension liquid-gas [mN/m]
298.15 K, x2 = 0.099	20.91
298.15 K, x2 = 0.208	20.9
298.15 K, x2 = 0.294	20.79
298.15 K, x2 = 0.391	20.8
298.15 K, x2 = 0.512	20.75
298.15 K, x2 = 0.604	20.81
298.15 K, x2 = 0.707	20.9
298.15 K, x2 = 0.809	21.03
298.15 K, x2 = 0.871	21.19
298.15 K, x2 = 0.908	21.44
298.15 K, x2 = 0.955	21.69
308.15 K, x2 = 0.105	19.95
308.15 K, x2 = 0.162	19.83
308.15 K, x2 = 0.209	19.81
308.15 K, x2 = 0.31	19.73
308.15 K, x2 = 0.403	19.71
308.15 K, x2 = 0.5	19.72
308.15 K, x2 = 0.607	19.71
308.15 K, x2 = 0.707	19.86
308.15 K, x2 = 0.807	20.05
308.15 K, x2 = 0.904	20.39
308.15 K, x2 = 0.955	20.77
318.15 K, x2 = 0.103	18.96
318.15 K, x2 = 0.205	18.71
318.15 K, x2 = 0.345	18.64
318.15 K, x2 = 0.448	18.6
318.15 K, x2 = 0.598	18.63
318.15 K, x2 = 0.703	18.69
318.15 K, x2 = 0.809	18.83
318.15 K, x2 = 0.91	19.18
318.15 K, x2 = 0.958	19.85

CCCCCCCCCC [decane] + CCO
[1]
Conditions	surface tension liquid-gas [mN/m]
303.15 K, x2 = 0.034	22.85
303.15 K, x2 = 0.101	22.6
303.15 K, x2 = 0.189	22.3
303.15 K, x2 = 0.29	22.1
303.15 K, x2 = 0.395	21.95
303.15 K, x2 = 0.492	21.85
303.15 K, x2 = 0.59	21.75
303.15 K, x2 = 0.696	21.65
303.15 K, x2 = 0.801	21.55
303.15 K, x2 = 0.907	21.45
303.15 K, x2 = 0.959	21.44
303.15 K, x2 = 0.982	21.43
308.15 K, x2 = 0.076	22.25
308.15 K, x2 = 0.173	22
308.15 K, x2 = 0.286	21.8
308.15 K, x2 = 0.373	21.68
308.15 K, x2 = 0.486	21.54
308.15 K, x2 = 0.593	21.46
308.15 K, x2 = 0.695	21.4
308.15 K, x2 = 0.8	21.29
308.15 K, x2 = 0.902	21.2
308.15 K, x2 = 0.954	21.17
318.15 K, x2 = 0.067	21.51
318.15 K, x2 = 0.16	21.25
318.15 K, x2 = 0.272	21
318.15 K, x2 = 0.366	20.83
318.15 K, x2 = 0.472	20.67
318.15 K, x2 = 0.585	20.54
318.15 K, x2 = 0.698	20.48
318.15 K, x2 = 0.803	20.37
318.15 K, x2 = 0.907	20.3
318.15 K, x2 = 0.958	20.36

CCCCCCCCCCCC [dodecane] + CCO
surface tension liquid-gas [mN/m], [1]
Conditions	298.15 K	303.15 K
x2 = 0.055	24.87	24.6
x2 = 0.09	–	24.5
x2 = 0.097	24.72	–
x2 = 0.174	–	24.05
x2 = 0.184	24.33	–
x2 = 0.247	–	23.7
x2 = 0.264	23.95	–
x2 = 0.332	–	23.35
x2 = 0.366	23.47	–
x2 = 0.443	–	22.92
x2 = 0.472	23.1	–
x2 = 0.571	–	22.65
x2 = 0.589	22.97	–
x2 = 0.684	–	22.52
x2 = 0.692	22.92	–
x2 = 0.795	–	22.39
x2 = 0.799	22.78	–
x2 = 0.903	–	22.16
x2 = 0.905	22.57	–
x2 = 0.951	22.38	21.98

CCCCCCCCCC [decane]
[2]
Conditions	surface tension liquid-gas [mN/m]
303.15 K	22.9
308.15 K	22.5
318.15 K	21.66

CCCCCCCCCCCCCC [tetradecane] + CCO
[1], 313.15 K
Conditions	surface tension liquid-gas [mN/m]
x2 = 0.054	24.67
x2 = 0.072	24.67
x2 = 0.143	24.53
x2 = 0.191	24.25
x2 = 0.3	23.3
x2 = 0.412	22.52
x2 = 0.522	21.98
x2 = 0.62	21.76
x2 = 0.702	21.8
x2 = 0.8	21.66
x2 = 0.9	21.4
x2 = 0.945	21.17
x2 = 0.967	21.02
x2 = 0.988	20.82

CCO [ethanol]
[2]
Conditions	surface tension liquid-gas [mN/m]
298.15 K	22.1
303.15 K	21.7
308.15 K	21.3
313.15 K	20.71
318.15 K	20.4

CCCCCCCC [octane]
[2]
Conditions	surface tension liquid-gas [mN/m]
298.15 K	21.1
308.15 K	20.2
318.15 K	19.2

CCCCCCCCCCCCCC [tetradecane]
Conditions	surface tension liquid-gas [mN/m]
[2], 313.15 K	24.8

CCCCCCCCCCCC [dodecane]
[2]
Conditions	surface tension liquid-gas [mN/m]
298.15 K	24.9
303.15 K	24.73
